{"source": "patent US12454529B2", "about": "“Piperazine cyclic ureas” (SIRONAX LTD., priority 2020, dated 2025)", "data": [{"system": "HT-29 cells", "experiment": "HT-29 cell necrosis/necroptosis inhibition (TNF-α + SMAC mimetic + zVAD-FMK; CellTiter-Glo cell viability)", "assay_type": "cell-based", "details": "Homo sapiens; HT-29 cells, TNF-α 10 ng/ml + SMAC mimetic 6 μM + zVAD-FMK 10 μM, 20 hours; geometric mean, 10 points in duplicate; read-out: EC50 (Cell activity; Necrosis/Necroptosis Inhibitory Activity, Compounds 1-142)", "procedure": "(§1) Compounds 1-319 (denoted as Compound Nos. 1 through 319 in Table 3 and 4) of the disclosure were tested for binding and cellular RIP1 inhibitory activity following the experimental procedures described below.\n(§2) • Cell line: HT-29 (ATCC® HTB-38™) • Culture medium: McCOY's 5A, Gibco, Cat No. 16600-082 • FBS, Gibco, Cat No. 10099-141C • Trypsin: Gibco, Cat No. 25200-056 • DMSO: Sigma, Cat No. 67-68-5, 1L • Assay plate: Corning #3903 • Compound dilution plate: Corning #3357 • Inducers: TNFα, GenScript, Cat No. Z01001-50, • SmacM, Cat. No., HY-15989, MedChemExpress (MCE) • Z_VAD FMK, TargetMol, T6013 • Cell Titer-Glo® Luminescent Cell Viability Assay Kit: Promega, Cat No. G7573 • EnVision: PerkinElmer, 2105-0010 Methods Cell Seeding\n(§3) 1. HT-29 cells were checked every day to make sure that they were healthy and growing as expected. They were subjected to sub-culturing when they were approximately 80% confluent.\n(§4) 2. The culture medium, McCOY's 5A medium (Gibco, Cat No. 16600-082) with 10% fetal bovine serum or FBS (Gibco, Cat No. 10099-141C), was pre-warmed in a 37° C. water bath for at least 30 min.\n(§5) 3. When the cells had reached a desired level of confluency of 80% in a T75 flask, the medium was aspirated, and the cells were washed with warm phosphate buffered saline or PBS two times.\n(§6) 4. 2-3 ml fresh warm trypsin (Gibco, Cat No. 25200-056) solution was added to the washed cells. The flask with the cells was transferred to a 37° C. incubator.\n(§7) 5. After 5 minutes, the side of the flask was tapped, and the flask was examined under a microscope for detachment of the cells to the flask. If necessary, the cells were kept in the incubator for an additional 5-10 minutes, with occasional tapping, until lifting was complete.\n(§8) 6. The trypsin reaction was neutralized by transferring 6-9 ml cell culture medium to sterile 15 ml conical tubes, and by centrifuging the cell culture at 300×g for 7 minutes to pellet the cells (supernatant decanted).\n(§9) 7. The cells were resuspended in fresh cell culture medium and the cell counting was performed using a hemocytometer.\n(§10) 8. 100 μl of the resuspended cell culture medium containing ˜5,000 cells were transferred into each well of the sterile 96-well cell culture plate (Corning 3903) and cultured overnight at 37° C. with 5% CO2.\n(§11) Compound Titration and Treatment\n(§12) 1. All test compounds were dissolved in DMSO (Dimethyl sulfoxide) to create a 20 mM stock.\n(§13) 2. 3 μl of each compound 20 mM stock was mixed with 27 μl DMSO, and the compound solution was further diluted at a titration ratio of 1:3 (20 μl compound solution+40 μl DMSO) till the 10 points end.\n(§14) 3. All culture medium was removed from assay plates filled with HT-29 cell cultures. The cells were then washed with 1 PBS, and resuspended in fresh, FBS-free McCOY's 5A medium containing a cocktail of TNF-α (10 ng/ml), a SMAC mimetic compound (6 μM) and Z-VAD-fluoromethylketone or zVAD-FMK (10 μM) to stimulate the HT-29 cells to increase RIP1 kinase levels and necroptosis.\n(§15) 4. 0.5 μL of the diluted compound solution was added to the corresponding 96-well assay plates.\n(§16) 5. The assay plates were incubated for 20 hours at 37° C. with 5% CO2.\n(§17) 1. The CellTiter-Glo® Luminescent Cell Viability Assay was employed to detect the ATP levels of viable HT-29 cells.\n(§18) 2. The CellTiter-Glo® buffer and the lyophilized substrate were equilibrated to room temperature prior to use.\n(§19) 3. The CellTiter-Glo® substrate was resuspended with CellTiter-Glo® buffer, then mixed by gently vortexing to obtain a homogeneous solution.\n(§20) 4. 20 μl the enzyme/substrate mixture was transferred by multi-channel pipetting into 96-well assay plates.\n(§21) 5. The assay plates were placed on an orbital shaker and the contents were shaken for 3 minutes to induce cell lysis.\n(§22) 6. The assay plates were incubated at room temperature for 10 minutes to stabilize the luminescent signal.\n(§23) 7. The luminescence signals were read and recorded with EnVision.\n(§24) 8. The geometric mean EC50 values were calculated from 10 points response dose with duplicates. In", "units": {"EC50": "nM"}, "values": [{"smiles": "Cn1ncc(C#N)c1-c1nc(N2CCN(C(=O)N3N=CC[C@H]3c3cc(F)cc(C#N)c3)CC2)ncc1F", "note": "[Compound 67, (S)-5-(2-(4-(5-(3-cyano-5-fluorophenyl)-4,5-dihydro-1H-pyrazole-1-carbonyl)piperazin-1-yl)-5-fluoropyrimidin-4-yl)-1-methyl-1H-pyrazole-4-carbonitrile]", "EC50": "0.1 to 100"}, {"smiles": "Cc1n[nH]cc1-c1nc(N2CCN(C(=O)N3N=CC[C@H]3c3cc(F)cc(F)c3)CC2)ncc1F", "note": "[Compound 13, (S)-(5-(3,5-difluorophenyl)-4,5-dihydro-1H-pyrazol-1-yl)(4-(5-fluoro-4-(3-methyl-1H-pyrazol-4-yl)pyrimidin-2-yl)piperazin-1-yl)methanone]", "EC50": "0.1 to 100"}, {"smiles": "O=C(N1CCN(c2nccc(-c3cc[nH]n3)n2)CC1)N1N=CC[C@H]1c1cc(F)cc(F)c1", "note": "[Compound 33, (S)-(4-(4-(1H-pyrazol-3-yl)pyrimidin-2-yl)piperazin-1-yl)(5-(3,5-difluorophenyl)-4,5-dihydro-1H-pyrazol-1-yl)methanone]", "EC50": "0.1 to 100"}, {"smiles": "Cc1nnc(-c2nc(N3CCN(C(=O)N4N=CC[C@H]4c4cc(F)cc(F)c4)CC3)ncc2F)s1", "note": "[Compound 63, (S)-(5-(3,5-difluorophenyl)-4,5-dihydro-1H-pyrazol-1-yl)(4-(5-fluoro-4-(5-methyl-1,3,4-thiadiazol-2-yl)pyrimidin-2-yl)piperazin-1-yl)methanone]", "EC50": "0.1 to 100"}, {"smiles": "Cn1nncc1-c1nc(N2CCN(C(=O)N3N=CC[C@H]3c3cc(F)cc(C#N)c3)CC2)ncc1F", "note": "[Compound 41]", "EC50": "0.1 to 100"}, {"smiles": "NC(=O)c1cnn(-c2nc(N3CCN(C(=O)N4N=CC[C@H]4c4cc(F)cc(F)c4)CC3)ncc2F)c1", "note": "[Compound 101, (5)-1-(2-(4-(5-(3,5-difluorophenyl)-4,5-dihydro-1H-pyrazole-1-carbonyl)piperazin-1-yl)-5-fluoropyrimidin-4-yl)-1H-pyrazole-4-carboxamide]", "EC50": "0.1 to 100"}, {"smiles": "Cc1cnn(C)c1-c1nc(N2CCN(C(=O)N3N=CC[C@H]3c3cc(F)cc(C#N)c3)CC2)ncc1F", "note": "[Compound 62, (S)-3-(1-(4-(4-(1,4-dimethyl-1H-pyrazol-5-yl)-5-fluoropyrimidin-2-yl)piperazine-1-carbonyl)-4,5-dihydro-1H-pyrazol-5-yl)-5-fluorobenzonitrile]", "EC50": "0.1 to 100"}, {"smiles": "Cc1nnn(C)c1-c1nc(N2CCN(C(=O)N3N=CC[C@H]3c3cc(F)cc(F)c3)CC2)ncc1F", "note": "[Compound 71, (S)-(5-(3,5-difluorophenyl)-4,5-dihydro-1H-pyrazol-1-yl)(4-(4-(1,4-dimethyl-1H-1,2,3-triazol-5-yl)-5-fluoropyrimidin-2-yl)piperazin-1-yl)methanone]", "EC50": "0.1 to 100"}, {"smiles": "Cn1nc(CO)nc1-c1nc(N2CCN(C(=O)N3N=CC[C@H]3c3cc(F)cc(C#N)c3)CC2)ncc1F", "note": "[Compound 72, (S)-3-fluoro-5-(1-(4-(5-fluoro-4-(3-(hydroxymethyl)-1-methyl-1H-1,2,4-triazol-5-yl)pyrimidin-2-yl)piperazine-1-carbonyl)-4,5-dihydro-1H-pyrazol-5-yl)benzonitrile]", "EC50": "0.1 to 100"}]}, {"system": "HT-29 cells", "experiment": "HT-29 cell necrosis/necroptosis inhibition (TNF-α + SMAC mimetic + zVAD-FMK; CellTiter-Glo cell viability)", "assay_type": "cell-based", "details": "Homo sapiens; HT-29 cells, TNF-α 10 ng/ml + SMAC mimetic 6 μM + zVAD-FMK 10 μM, 20 hours; geometric mean, 10 points in duplicate; read-out: EC50 (Cell activity; Necrosis/Necroptosis Inhibitory Activity, Compounds 143-323)", "procedure": "as §1, §2, §3, §4, §5, §6, §7, §8, §9, §10, §11, §12, §13, §14, §15, §16, §17, §18, §19, §20, §21, §22, §23, §24", "units": {"EC50": "nM"}, "values": [{"smiles": "Cn1ncnc1-c1ccc(F)c(N2CCN(C(=O)N3N=CC[C@H]3c3cc(F)cc(C#N)c3)CC2)n1", "note": "[Compound 176, (S)-3-fluoro-5-(1-(4-(3-fluoro-6-(1-methyl-1H-1,2,4-triazol-5-yl)pyridin-2-yl)piperazine-1-carbonyl)-4,5-dihydro-1H-pyrazol-5-yl)benzonitrile]", "EC50": "0.1 to 100"}, {"smiles": "Cc1nc(C#N)nn1-c1nc(N2CCN(C(=O)N3N=CC[C@H]3c3cncc(F)c3)CC2)ncc1F", "note": "[Compound 255, (S)-1-(5-fluoro-2-(4-(5-(5-fluoropyridin-3-yl)-4,5-dihydro-1H-pyrazole-1-carbonyl)piperazin-1-yl)pyrimidin-4-yl)-5-methyl-1H-1,2,4-triazole-3-carbonitrile]", "EC50": "0.1 to 100"}, {"smiles": "Cc1nc(C)n(-c2ncc(F)c(N3CCN(C(=O)N4N=CCC4c4ncccc4Cl)CC3)n2)n1", "note": "(centres unmarked) [Compound 263, (5-(3-chloropyridin-2-yl)-4,5-dihydro-1H-pyrazol-1-yl)(4-(2-(3,5-dimethyl-1H-1,2,4-triazol-1-yl)-5-fluoropyrimidin-4-yl)piperazin-1-yl)methanone]", "EC50": "100 to 1000"}, {"smiles": "Cc1nc(C)n(-c2nc(N3CCN(C(=O)N4N=CCC4c4cc(Br)cc(F)c4F)CC3)ncc2F)n1", "note": "(centres unmarked) [Compound 237, (5-(5-bromo-2,3-difluorophenyl)-4,5-dihydro-1H-pyrazol-1-yl)(4-(4-(3,5-dimethyl-1H-1,2,4-triazol-1-yl)-5-fluoropyrimidin-2-yl)piperazin-1-yl)methanone]", "EC50": "0.1 to 100"}, {"smiles": "Cc1nn(-c2cc(N3CCN(C(=O)N4N=CC[C@H]4c4cc(F)cc(C#N)c4)CC3)ncn2)c(C)c1C(N)=O", "note": "[Compound 282, (S)-1-(6-(4-(5-(3-cyano-5-fluorophenyl)-4,5-dihydro-1H-pyrazole-1-carbonyl)piperazin-1-yl)pyrimidin-4-yl)-3,5-dimethyl-1H-pyrazole-4-carboxamide]", "EC50": "0.1 to 100"}, {"smiles": "Cc1cc[nH]c(=O)c1-c1nc(N2CCN(C(=O)N3N=CC[C@H]3c3cc(F)cc(C#N)c3)CC2)ncc1F", "note": "[Compound 164, (S)-3-fluoro-5-(1-(4-(5-fluoro-4-(4-methyl-2-oxo-1,2-dihydropyridin-3-yl)pyrimidin-2-yl)piperazine-1-carbonyl)-4,5-dihydro-1H-pyrazol-5-yl)benzonitrile]", "EC50": "0.1 to 100"}, {"smiles": "Cc1nc(C)n(-c2nc(N3CCN(C(=O)N4N=CC[C@H]4c4cc(F)cc(C#N)c4)CC3)ncc2Cl)n1", "note": "[Compound 260, (S)-3-(1-(4-(5-chloro-4-(3,5-dimethyl-1H-1,2,4-triazol-1-yl)pyrimidin-2-yl)piperazine-1-carbonyl)-4,5-dihydro-1H-pyrazol-5-yl)-5-fluorobenzonitrile]", "EC50": "0.1 to 100"}, {"smiles": "O=C(N1CCN(c2ncc(F)c(-n3cnc(C(F)(F)F)n3)n2)CC1)N1N=CC[C@H]1c1cc(F)cc(F)c1", "note": "[Compound 305, (S)-(5-(3,5-difluorophenyl)-4,5-dihydro-1H-pyrazol-1-yl)(4-(5-fluoro-4-(3-(trifluoromethyl)-1H-1,2,4-triazol-1-yl)pyrimidin-2-yl)piperazin-1-yl)methanone]", "EC50": "0.1 to 100"}, {"smiles": "Cc1ncc(C2CC=NN2C(=O)N2CCN(c3nc(-c4c(C)cnn4C)ncc3F)CC2)s1", "note": "(centres unmarked) [Compound 162, (4-(2-(1,4-dimethyl-1H-pyrazol-5-yl)-5-fluoropyrimidin-4-yl)piperazin-1-yl)(5-(2-methylthiazol-5-yl)-4,5-dihydro-1H-pyrazol-1-yl)methanone]", "EC50": "0.1 to 100"}, {"smiles": "O=C(N1CCN(c2ncc(F)c(-n3cnc(C(F)(F)F)n3)n2)CC1)N1N=CC[C@H]1c1cccc(F)c1", "note": "[Compound 313, (S)-(4-(5-fluoro-4-(3-(trifluoromethyl)-1H-1,2,4-triazol-1-yl)pyrimidin-2-yl)piperazin-1-yl)(5-(3-fluorophenyl)-4,5-dihydro-1H-pyrazol-1-yl)methanone]", "EC50": "0.1 to 100"}, {"smiles": "Cn1nc(C#N)nc1-c1nc(N2CCN(C(=O)N3N=CCC3c3cncc(F)c3)CC2)ncc1F", "note": "(centres unmarked) [Compound 229, 5-(5-fluoro-2-(4-(5-(5-fluoropyridin-3-yl)-4,5-dihydro-1H-pyrazole-1-carbonyl)piperazin-1-yl)pyrimidin-4-yl)-1-methyl-1H-1,2,4-triazole-3-carbonitrile]", "EC50": "0.1 to 100"}]}]}
